“And” between values parts separate entries of the source, which are not always exact repeats. Equal values may be shown once. Read-outs that look alike come from different tables or passages of the source. Marks after values point to notes of the source that are not given here.
How the values were obtained:
[1] = test system: active uptake transport of gadoxetate into the liver; assay: Simultaneous PBPK fitting of gadoxetate DCE-MRI data in control and rifampicin phases; type: in vivo, rat; conditions: value (CV)
Description: (§1) DCE–MRI data generated using the 3D Fast Low Angle Shot RF-spoiled gradient echo sequence (FLASH) protocol in male Wistar-Han rats were used for assessing the PBPK IVIVE performances and for obtaining some of the PBPK parameters within the bottom-up and top-down approaches, respectively. The DCE–MRI data were acquired in a multicenter study at two magnetic field strengths, 4.7 and 7 T. Gadoxetate was administered at a dose of 25 μmol/kg, either alone or 1 h after IV administration of 10 mg/kg rifampicin. When gadoxetate was administered alone (control arm), 43 profiles of blood, spleen, and liver measured at a field strength of 4.7 T and 52 profiles of blood, spleen, and liver measured at 7 T were available. In the case of gadoxetate administered with rifampicin, 7 blood, spleen, and liver profiles at a field strength equal to 4.7 T and 6 at 7 T were available. All gadoxetate DCE–MRI data and study protocols are detailed in a companion paper (Hines et al. in submission).
The DCE–MRI data used in this study were reported as ΔR1. Therefore, the relationship between the compartmental concentrations represented by the PBPK model state variables and the ΔR1 measurements for the blood, liver, and spleen needed to be described. The linear relationship in eq 4 is not valid for ΔR1 of the liver, ΔR1,liv, because intracellular and extracellular tissue compartments have different relaxivities. To derive ΔR1,liv, a volume fraction-weighted mean of the contributions of the gadoxetate concentration in all the compartments used to model the liver was performed.[40] In the spleen, the entire distribution space was supposed to have the same relaxivity as blood and, therefore, eq 4 can be applied directly to derive spleen concentrations from ΔR1,spl. Concerning the blood, the blood value for r1 in Table 1 allows ΔR1,b to be directly related to the blood concentration. The relations between ΔR1,liv, ΔR1,spl, and ΔR1,b and the concentrations of the PBPK compartments are shown in eq 7. [drawing 7] 7 cspl,extr is the extracellular concentration in the spleen and Vspl,extr is the extracellular volume of the spleen and Vliv and Vspl are the whole volumes of liver and spleen. r1,liv,extr and r1,spl,extr were assumed to be equal to r1,b, as described in Hines et al.
In fact, each of the data are acquired during a time interval Δt, which was 57 s in the current dataset. To account for this characteristic when performing the parameter estimation, the residuals were calculated as the difference of the observed ΔR1 corresponding to a given time interval minus the mean of the simulated PBPK ΔR1 within the same interval, as explained in the Supporting Information, Section 4.
The extent of interaction with rifampicin was estimated by performing a simultaneous fitting of gadoxetate ΔR1 in the control and inhibitory phase. In this analysis, PS was considered the same for both phases, whereas the other parameters were separately estimated in the absence (CLactive and CLbiliary) and in the presence of rifampicin (CLactive,inh and CLbiliary,inh). CLbiliary,inh was considered to account for possible inhibition of Mrp2 in rat by rifampicin, as previously reported.[45] To understand the impact of the inclusion of the liver-imaging data on the parameter optimization, the simultaneous estimation was also performed considering only the blood data.
All the PBPK analyses were performed in MATLAB R2020a,[50] the ordinary differential equations were solved with the function “ode15s”, while the parameter optimization was performed with the function “lsqnonlin”. The uncertainty of the parameters estimate was evaluated with the case-bootstrap,[51] using 1000 samples.

[2] = Top-down PBPK model fitting to DCE-MRI ΔR1 data, gadoxetate administered alone; type: in vivo, rat
Description: as §1
The measured quantity in DCE–MRI is ΔR1 (s^–1), the change of the water proton longitudinal relaxation rate, a magnetic property of the tissues, due to the presence of the contrast agent. In sufficiently homogeneous tissues, the tissue concentration of the contrast agent as a function of time, c(t), can be derived from ΔR1(t). The relationship between c(t) and ΔR1(t) depends on the physical interactions between the contrast agent molecules and the tissue.[39] For a given tissue τ, the relation between ΔR1,τ(t) and cτ(t) is generally considered to be linear, as in eq 4.[39],[40] [drawing 4] 4
A reduced PBPK model was developed to describe the PK of gadoxetate in rats; a permeability-limited liver model was implemented capturing relevant processes, as done previously.[6],[41] The compartments represent the blood, spleen, splanchnic organs, liver interstitial space, hepatocytes, and the rest of the body (ROB) vascular and extravascular spaces. The ROB compartment includes muscles, skin, bones, and fat among others. Details of model equations and physiological parameters values are reported in the Supporting Information, Sections 2, 3, and 5.
Standard kinetic models used for MRI contrast agents generally describe the organs by using three compartments: plasma, interstitial, and intracellular spaces.[12],[42],[43] Gadoxetate distributes only in the extracellular space of all the organs; liver is the exception, where gadoxetate undergoes active uptake into the hepatocytes.[44] Therefore, in the gadoxetate PBPK model, the volume of all the compartments, except the blood and the liver, corresponded to the organ extracellular space, that in turn was considered to be composed of the blood within the organ and the interstitial space. For highly vascularized and perfused organs with fenestrated capillaries (e.g., liver), the exchange between the plasma and the interstitial space is generally considered to be fast.[12],[19] Therefore, for liver, spleen, and splanchnic compartments, the extracellular volumes were considered to be the sum of the blood within the organ and the interstitial space volumes. […] A permeability limitation between the vascular and interstitial space was, therefore, assumed for the ROB compartment, as shown in eq 5. [drawing 5] 5 cb, crob,v and crob,ev [μmol/L] are the gadoxetate concentration in blood and ROB vascular and extravascular compartments; Vrob,v and Vrob,ev [L] are the ROB vascular and extravascular compartment volumes, respectively; and PS [L/h] is the permeability surface product. […]

[3] = set-up: method as in PMID 32851735; conditions: cited from earlier work; for Ex vivo relaxivity r1, blood: spleen assumed equal to blood
[4] = gadoxetate 1 h after rifampicin i.v. 10 mg/kg, simultaneous fit
[5] = simultaneous fit, 5-compartment liver model
[6] = with rifampicin, 5-compartment liver model
[7] = fit to blood, spleen and liver ΔR1, gadoxetate alone, mean (CV %) of 1000 bootstrap samples
[8] = gadoxetate alone, blood data only, value (CV)
[9] = gadoxetate alone, blood, spleen, liver ΔR1, CLr also estimated, value (CV)

For `CCOc1ccc(C[C@@H](CN(CCN(CC(=O)[O-])CC(=O)[O-])CC(=O)[O-])N(CC(=O)[O-])CC(=O)[O-])cc1.[Gd+3].[H+].[H+]` [gadoxetate], the “CLactive, estimated value (with rifampicin) (CLactive,inh)” value [1, 4] was 0.095 (16.1%) L/h, the “CLbiliary, estimated value (with rifampicin) (CLbiliary,inh)” value [1, 4] was 0.08 (16.7%) L/h and the “CLactive, estimated value (control)” value ([1]; simultaneous fit of control and rifampicin phases, blood, spleen, liver ΔR1) was 2.38 (13.6%) L/h. The “CLbiliary, estimated value (control)” value ([1]; simultaneous fit of control and rifampicin phases) was 0.07 (3.1%) L/h, the “PS, blood ΔR1 only” value ([1]; simultaneous fit using only blood ΔR1, both groups) was 2.07 (20 %) L/h and the “CLactive control group, blood ΔR1 only” value ([1]; simultaneous fit using only blood ΔR1) was 1.82 (30 %) L/h and 1.82 L/h. For the same compound, the “CLactive control group, 5-compartment liver model” value [1, 5] was 1.45 (7.4 %) L/h, the “CLbiliary control group, 5-compartment liver model” value [1, 5] was 0.07 (3.2 %) L/h and the “PS, 5-compartment liver model” value ([1]; simultaneous fit, both groups) was 0.81 (7.2 %) L/h. The “PS, estimated value” ([1]; simultaneous fit, same for both phases) was 0.71 (5.7%) L/h, the “CLactive rifampicin group (CLactive,inh), blood ΔR1 only” value ([1]; with rifampicin 10 mg/kg, simultaneous fit using only blood ΔR1) was 0.29 (45 %) L/h and 0.29 L/h and the “CLactive rifampicin group, 5-compartment liver model” value [1, 6] was 0.065 (28.2 %) L/h. For the same compound, the “CLbiliary rifampicin group, 5-compartment liver model” value [1, 6] was 0.07 (26.6 %) L/h, the “CLactive, top-down estimate” value ([2]; fit to blood, spleen and liver ΔR1, gadoxetate alone 25 μmol/kg, mean (CV %) of 1000 bootstrap samples) was 2.17 (11.5%) ^b L/h and the “CLbiliary, top-down estimate” value [2, 7] was 0.07 (3.2%) ^b L/h. The “PS, top-down estimate” value [2, 7] was 0.62 (6.3%) ^b L/h, the “CLactive, estimated only with ΔR1 blood data” value [2, 8] was 1.88 (23.2 %) L/h and 1.88 L/h and the “PS, estimated only with ΔR1 blood data” value [2, 8] was 1.92 (20.8 %) L/h and 1.92 L/h. For the same compound, the “CLactive, simultaneous estimation with CLr” value [2, 9] was “practically unidentifiable”, the “CLbiliary, simultaneous estimation with CLr” value [2, 9] was 0.07 (2.6 %) L/h and the “PS, simultaneous estimation with CLr” value [2, 9] was 0.58 (8.3 %) L/h. For the same compound, the “CLactive, simultaneous estimation with CLr” value ([2]; gadoxetate alone, blood, spleen, liver ΔR1, CLr also estimated, value (CV), listed as Gadoxetate) was 3.11 (>1000 %) L/h, the “CLr, estimated” value ([2]; gadoxetate alone, blood, spleen, liver ΔR1, value (CV)) was 0.40 (24.6 %) L/h and the “Ex vivo relaxivity r1, hepatocytes” value ([3]; 4.7 T) was 7.6 s^–1/mM. The “Ex vivo relaxivity r1, blood” value ([3]; 4.7 T) was 6.4 s^–1/mM, the “Ex vivo relaxivity r1, hepatocytes” value ([3]; 7 T) was 6 s^–1/mM and the “Ex vivo relaxivity r1, blood” value ([3]; 7 T) was 6.2 s^–1/mM.

Reference: publication PMC8397403, “Physiologically Based Pharmacokinetic Modeling of Transporter-Mediated Hepatic Disposition of Imaging Biomarker Gadoxetate in Rats” (Molecular Pharmaceutics, 2021)
